In ChEMBL document CHEMBL1147216, “Parallel synthesis and SAR study of novel oxa-steroids as potent and selective progesterone receptor antagonists” (Bioorg Med Chem Lett, 2007) one finds IC50 and Ratio IC50 data, which are given here for 24 compounds.

Structures are written as SMILES.

One test deals with T1, Progesterone receptor (Homo sapiens, UniProt P06401).
T1 sequence (P06401 whole entry): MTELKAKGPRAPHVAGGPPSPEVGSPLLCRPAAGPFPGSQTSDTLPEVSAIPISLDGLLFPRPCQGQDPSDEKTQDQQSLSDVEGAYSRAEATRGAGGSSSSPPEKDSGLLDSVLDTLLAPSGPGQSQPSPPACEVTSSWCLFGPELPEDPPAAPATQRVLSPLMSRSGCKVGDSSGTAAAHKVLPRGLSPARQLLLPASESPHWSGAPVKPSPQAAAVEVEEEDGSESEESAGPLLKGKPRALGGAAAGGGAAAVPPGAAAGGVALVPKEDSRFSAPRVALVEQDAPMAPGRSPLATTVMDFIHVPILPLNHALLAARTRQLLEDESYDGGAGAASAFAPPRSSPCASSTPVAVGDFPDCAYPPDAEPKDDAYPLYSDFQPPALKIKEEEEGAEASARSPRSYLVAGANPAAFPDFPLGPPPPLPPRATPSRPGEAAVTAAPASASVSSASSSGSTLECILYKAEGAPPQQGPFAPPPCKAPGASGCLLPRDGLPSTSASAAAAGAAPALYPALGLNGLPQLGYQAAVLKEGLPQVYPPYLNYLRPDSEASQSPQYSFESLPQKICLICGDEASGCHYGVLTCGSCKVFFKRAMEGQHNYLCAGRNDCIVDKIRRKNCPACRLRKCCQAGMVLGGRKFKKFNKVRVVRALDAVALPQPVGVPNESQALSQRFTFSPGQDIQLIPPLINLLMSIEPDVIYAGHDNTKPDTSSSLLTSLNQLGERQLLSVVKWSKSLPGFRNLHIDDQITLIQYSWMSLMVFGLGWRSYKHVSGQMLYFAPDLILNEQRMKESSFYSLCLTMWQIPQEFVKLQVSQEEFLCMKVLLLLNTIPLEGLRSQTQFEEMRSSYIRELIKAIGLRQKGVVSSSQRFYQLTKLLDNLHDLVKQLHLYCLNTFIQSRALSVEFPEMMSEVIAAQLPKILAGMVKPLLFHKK
Briefly: Antagonist activity at human progesterone receptor assessed as inhibition of alkaline phosphatase activity in human T47D cells. The format is functional, cell-based.

The target in the next test is T2, Glucocorticoid receptor (Homo sapiens, UniProt P04150).
T2 sequence (P04150 whole entry): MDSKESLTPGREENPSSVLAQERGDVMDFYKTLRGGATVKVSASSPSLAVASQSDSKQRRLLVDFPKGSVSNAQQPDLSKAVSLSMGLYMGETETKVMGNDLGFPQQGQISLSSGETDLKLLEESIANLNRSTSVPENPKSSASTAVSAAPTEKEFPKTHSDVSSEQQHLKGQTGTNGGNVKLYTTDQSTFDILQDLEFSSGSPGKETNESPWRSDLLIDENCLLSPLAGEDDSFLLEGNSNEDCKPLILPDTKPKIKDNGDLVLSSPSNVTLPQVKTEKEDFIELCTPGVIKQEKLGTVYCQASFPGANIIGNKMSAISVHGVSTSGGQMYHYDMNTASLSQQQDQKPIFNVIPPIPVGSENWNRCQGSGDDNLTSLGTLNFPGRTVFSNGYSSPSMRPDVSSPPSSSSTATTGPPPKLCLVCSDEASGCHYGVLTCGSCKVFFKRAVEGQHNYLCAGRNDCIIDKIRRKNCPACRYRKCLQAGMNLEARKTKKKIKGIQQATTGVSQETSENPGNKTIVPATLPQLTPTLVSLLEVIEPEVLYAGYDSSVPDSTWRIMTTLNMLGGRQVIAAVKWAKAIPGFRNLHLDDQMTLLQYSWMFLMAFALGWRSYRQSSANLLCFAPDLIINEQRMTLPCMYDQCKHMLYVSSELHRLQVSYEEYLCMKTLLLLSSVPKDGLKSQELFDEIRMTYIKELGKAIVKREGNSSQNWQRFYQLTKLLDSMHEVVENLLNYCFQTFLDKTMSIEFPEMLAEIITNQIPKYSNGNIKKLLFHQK
Briefly: Antagonist activity at human glucocorticoid receptor assessed as inhibition of corticoid-induced transcription in human A549 cells by GRE-linked luciferase reporter gene assay. The format is functional, cell-based.

A further test is filed under the species Homo sapiens. Description: Selectivity of human progesterone receptor over human glucocorticoid receptor.

With `CN(C)c1ccc([C@H]2C[C@@]3(C)[C@@H](CC[C@@]3(O)C#Cc3ccsc3)[C@@H]3OCC4=CC(=O)CCC4=C32)cc1`, the IC50 amounted to 1.6 nM at Progesterone receptor and 56 nM on Glucocorticoid receptor. Moreover, in the test filed under Homo sapiens, the Ratio IC50 came to 35.

Turning to `CN(C)c1ccc([C@H]2C[C@@]3(C)[C@@H](CC[C@@]3(O)C#Cc3ccc(C(C)(C)C)cc3)[C@@H]3OCC4=CC(=O)CCC4=C32)cc1`, the IC50 was determined as 19.5 nM at Progesterone receptor and 65.8 nM at Glucocorticoid receptor. In the test listed under Homo sapiens, the Ratio IC50 turned out to be 3.

As for `CN(C)c1ccc([C@H]2C[C@@]3(C)[C@@H](CC[C@@]3(O)C#Cc3ccccc3Br)[C@@H]3OCC4=CC(=O)CCC4=C32)cc1`, the IC50 came out at 8.6 nM at Progesterone receptor and 62.7 nM on Glucocorticoid receptor. Further, the Ratio IC50 in the test listed under Homo sapiens is 7.

Consider `CN(C)c1ccc([C@H]2C[C@@]3(C)[C@@H](CC[C@@]3(O)C#Cc3cc(F)cc(F)c3)[C@@H]3OCC4=CC(=O)CCC4=C32)cc1`, for which the half-inhibitory concentration (IC50) was 0.91 nM at Progesterone receptor and 34.4 nM at Glucocorticoid receptor. Besides, the Ratio IC50 in the test listed under Homo sapiens came to 38.

In the case of `COc1ccc(C#C[C@]2(O)CC[C@H]3[C@@H]4OCC5=CC(=O)CCC5=C4[C@@H](c4ccc(N(C)C)cc4)C[C@@]32C)cc1`, the figures for the IC50 at Progesterone receptor and on Glucocorticoid receptor were 3.2 nM and 80.3 nM, respectively. Moreover, the Ratio IC50 in the test filed under Homo sapiens turned out to be 25.

For `CN(C)c1ccc([C@H]2C[C@@]3(C)[C@@H](CC[C@@]3(O)C#Cc3cccnc3)[C@@H]3OCC4=CC(=O)CCC4=C32)cc1`, the IC50 on Progesterone receptor was 21 nM; on Glucocorticoid receptor, 342 nM. Also, in the test filed under Homo sapiens, the Ratio IC50 is 16.

`CN(C)c1ccc([C@H]2C[C@@]3(C)[C@@H](CC[C@@]3(O)C#Cc3ccc(C#N)cc3)[C@@H]3OCC4=CC(=O)CCC4=C32)cc1`: the IC50 at Progesterone receptor is 3.7 nM; on Glucocorticoid receptor, 41.3 nM. For the same compound, in the test filed under Homo sapiens, the Ratio IC50 was determined as 11.

Take `CN(C)c1ccc([C@H]2C[C@@]3(C)[C@@H](CC[C@@]3(O)C#Cc3ccccc3C(F)(F)F)[C@@H]3OCC4=CC(=O)CCC4=C32)cc1`: the IC50 at Progesterone receptor worked out at 3.2 nM; on Glucocorticoid receptor, 51 nM. Besides, in the test filed under Homo sapiens, the Ratio IC50 was 16.

Regarding `Cc1cccc(C#C[C@]2(O)CC[C@H]3[C@@H]4OCC5=CC(=O)CCC5=C4[C@@H](c4ccc(N(C)C)cc4)C[C@@]32C)c1`, the results for the IC50 at Progesterone receptor and at Glucocorticoid receptor were 2.9 nM and 36.3 nM, respectively. Besides, the Ratio IC50 in the test listed under Homo sapiens was 13.

For `CN(C)c1ccc([C@H]2C[C@@]3(C)[C@@H](CC[C@@]3(O)C#Cc3ccc(C(F)(F)F)cc3)[C@@H]3OCC4=CC(=O)CCC4=C32)cc1`, the IC50 on Progesterone receptor came out at 0.75 nM; at Glucocorticoid receptor it was 111 nM. The Ratio IC50 in the test listed under Homo sapiens amounted to 148.

On to `CN(C)c1ccc([C@H]2C[C@@]3(C)[C@@H](CC[C@@]3(O)C#Cc3cccc(C(F)(F)F)c3)[C@@H]3OCC4=CC(=O)CCC4=C32)cc1`, for which the IC50 on Progesterone receptor turned out to be 2.7 nM; at Glucocorticoid receptor, 45.4 nM. Moreover, the Ratio IC50 in the test filed under Homo sapiens worked out at 17.

For `CN(C)c1ccc([C@H]2C[C@@]3(C)[C@@H](CC[C@@]3(O)C#Cc3cccc(F)c3)[C@@H]3OCC4=CC(=O)CCC4=C32)cc1`, the IC50 was found to be 1 nM on Progesterone receptor and 56.6 nM at Glucocorticoid receptor. In addition, the Ratio IC50 in the test filed under Homo sapiens is 57.

As to `Cc1ccc(C#C[C@]2(O)CC[C@H]3[C@@H]4OCC5=CC(=O)CCC5=C4[C@@H](c4ccc(N(C)C)cc4)C[C@@]32C)cc1`, the IC50 came out at 1.6 nM at Progesterone receptor and 22.1 nM on Glucocorticoid receptor. For the same compound, in the test filed under Homo sapiens, the Ratio IC50 turned out to be 14.

For the compound `Cc1ccccc1C#C[C@]1(O)CC[C@H]2[C@@H]3OCC4=CC(=O)CCC4=C3[C@@H](c3ccc(N(C)C)cc3)C[C@@]21C`, the IC50 on Progesterone receptor amounted to 5.8 nM; at Glucocorticoid receptor, 113 nM. For the same compound, in the test listed under Homo sapiens, the Ratio IC50 is 20.

On to `CC#C[C@]1(O)CC[C@H]2[C@@H]3OCC4=CC(=O)CCC4=C3[C@@H](c3ccc(N(C)C)cc3)C[C@@]21C`, for which the Ratio IC50 in the test listed under Homo sapiens was determined as 12.

As to `CN(C)c1ccc([C@H]2C[C@@]3(C)[C@@H](CC[C@@]3(O)C#Cc3ccccc3F)[C@@H]3OCC4=CC(=O)CCC4=C32)cc1`, the figures for the IC50 on Progesterone receptor and on Glucocorticoid receptor were 1.4 nM and 65.1 nM, respectively. Moreover, in the test listed under Homo sapiens, the Ratio IC50 was 47.

On to `CN(C)c1ccc([C@H]2C[C@@]3(C)[C@@H](CC[C@@]3(O)C#Cc3ccccc3Cl)[C@@H]3OCC4=CC(=O)CCC4=C32)cc1`, for which the IC50 on Progesterone receptor is 1.1 nM; on Glucocorticoid receptor, 64.8 nM. Besides, the Ratio IC50 in the test filed under Homo sapiens stood at 59.

As for `CN(C)c1ccc([C@H]2C[C@@]3(C)[C@@H](CC[C@@]3(O)C#Cc3ccc(F)cc3)[C@@H]3OCC4=CC(=O)CCC4=C32)cc1`, the IC50 came to 0.27 nM at Progesterone receptor and 37.6 nM on Glucocorticoid receptor. Besides, the Ratio IC50 in the test listed under Homo sapiens amounted to 139.

For the compound `CN(C)c1ccc([C@H]2C[C@@]3(C)[C@@H](CC[C@@]3(O)C#Cc3ccc(Cl)cc3)[C@@H]3OCC4=CC(=O)CCC4=C32)cc1`, the IC50 on Progesterone receptor amounted to 0.61 nM; at Glucocorticoid receptor, 43.5 nM. Moreover, the Ratio IC50 in the test listed under Homo sapiens is 71.

With `CN(C)c1ccc([C@H]2C[C@@]3(C)[C@@H](CC[C@@]3(O)C#Cc3ccccn3)[C@@H]3OCC4=CC(=O)CCC4=C32)cc1`, the IC50 on Progesterone receptor amounted to 34 nM; on Glucocorticoid receptor, 175 nM. In addition, in the test listed under Homo sapiens, the Ratio IC50 came to 5.

With `CN(C)c1ccc([C@H]2C[C@@]3(C)[C@@H](CC[C@@]3(O)C#Cc3ccc(Br)cc3)[C@@H]3OCC4=CC(=O)CCC4=C32)cc1`, the half-maximal inhibitory concentration (IC50) came to 0.94 nM on Progesterone receptor and 31.3 nM on Glucocorticoid receptor. Besides, in the test listed under Homo sapiens, the Ratio IC50 was found to be 33.

As for `CN(C)c1ccc([C@H]2C[C@@]3(C)[C@@H](CC[C@@]3(O)C#Cc3ccccc3)[C@@H]3OCC4=CC(=O)CCC4=C32)cc1`, the Ratio IC50 in the test filed under Homo sapiens is 217.

Regarding `CN(C)c1ccc([C@H]2C[C@@]3(C)[C@@H](CC[C@@]3(O)C#Cc3ccncc3)[C@@H]3OCC4=CC(=O)CCC4=C32)cc1`, the results for the IC50 at Progesterone receptor and on Glucocorticoid receptor were 39 nM and 247 nM, respectively. Further, the Ratio IC50 in the test listed under Homo sapiens was determined as 6.

Take `CN(C)c1ccc([C@H]2C[C@@]3(C)[C@@H](CC[C@@]3(O)C#Cc3cccc(Cl)c3)[C@@H]3OCC4=CC(=O)CCC4=C32)cc1`: the IC50 is 12.5 nM at Progesterone receptor and 48.9 nM on Glucocorticoid receptor. In addition, in the test filed under Homo sapiens, the Ratio IC50 stood at 4.
